Common to all, as to type: cell-based
Assay [1] deals with Staphylococcus aureus NRS384 (MRSA). As to the kind of experiment: Broth microdilution MIC, S. aureus NRS384 (MRSA). The settings on record: broth microdilution, 37° C., 20 hours; for MIC: Staphylococcus aureus, read-out: MIC NRS 384 (MRSA). Details: MIC NRS 384 (MRSA): unit not given here. The procedure, abridged:
(§1)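 Broth microdilution in strain-specific test medium with ~5.0×10^5 cfu/ml inoculum, 1% DMSO and two-fold compound dilutions from 64 to 0.0625 μg/ml. Plates were held 20 hours at 37° C in ambient air. S. pneumoniae colonies were grown beforehand on blood agar in 5% CO2.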
A general note: In broth dilution the organism is exposed to a series of concentrations in liquid medium.

Assay [2] concerns Staphylococcus aureus ATCC 29213 (MSSA). As to the kind of experiment: Broth microdilution MIC, S. aureus ATCC 29213 (MSSA). The settings on record: broth microdilution, 37° C., 20 hours, read-out: MIC S. aureus ATCC 29213 (MSSA). The procedure, abridged:
as §1

Assay [3] deals with Enterococcus faecalis ATCC 29212. As to the kind of experiment: Broth microdilution MIC, E. faecalis ATCC 29212. The settings on record: ATCC29212, broth microdilution, 37° C., 20 hours, read-out: MIC E. faecalis ATCC 29212. Put shortly:
as §1

Assay [4] concerns Enterococcus faecium ATCC 700221 (VRE). As to the kind of experiment: Broth microdilution MIC, E. faecium ATCC 700221 (VRE). The note with it: broth microdilution, 37° C., 20 hours; for MIC: Enterococcus faecium, read-out: MIC E. faecium ATCC 700221 (VRE). Also on record: MIC E. faecium ATCC 700221 (VRE): unit: ug/mL. The procedure, abridged: as §1
Assay [5] deals with Streptococcus pneumoniae ATCC 49619. Briefly: Broth microdilution MIC, S. pneumoniae ATCC 49619. The settings on record: ATCC49619, broth microdilution, 37° C., 20 hours, read-out: MIC S. pneumoniae ATCC 49619. Put shortly: as §1
For assay [6], the system named is Bacillus subtilis ATCC 6633. Briefly: Broth microdilution MIC, B. subtilis ATCC 6633. The note with it: ATCC6633, broth microdilution, 37° C., 20 hours, read-out: MIC B. subtilis ATCC 6633. Put shortly:
as §1

Assay [7] deals with Escherichia coli ATCC 25922. As to the kind of experiment: Broth microdilution MIC, E. coli ATCC 25922 (MHIIB w & w/o 4 mM EDTA). The note with it: broth microdilution, 37° C., 20 hours; for MIC: Escherichia coli, ATCC25922, without EDTA, read-out: MIC E. coli ATCC 25922; for MIC E. coli ATCC 25922 + 4 mM EDTA: with 4 mM EDTA. The procedure, abridged: as §1

≈ marks a conversion by molar mass, not a printed value.

In general, MIC refers to the lowest concentration found to suppress growth.

With `O=c1[nH]c(NCc2ccc(Cl)c(Cl)c2)nc2cnn(CCS(=O)(=O)CCO)c12` [Compound 164, 5-((3,4-dichlorobenzyl)amino)-1-(2-((2-hydroxyethyl)sulfonyl)ethyl)-1H-pyrazolo[4,3-d]pyrimidin-7(6H)-one], the MIC in assay [1] amounted to 64 µg/mL (≈ 143 µM); in assay [2] it was 32 µg/mL (≈ 71.7 µM); in assay [3], 32 µg/mL (≈ 71.7 µM); in assay [4], 16 µg/mL (≈ 35.8 µM); in assay [5] it was 4 µg/mL (≈ 8.96 µM); in assay [6] it was 16 µg/mL (≈ 35.8 µM). In addition, the MIC in assay [7] was more than 64 µg/mL. For the same compound, the “MIC E. coli ATCC 25922 + 4 mM EDTA” value in assay [7] is more than 64 µg/mL.

`CS(=O)(=O)NC(=O)Cn1ncc2nc(NCc3ccc(Cl)c(Cl)c3)[nH]c(=O)c21` [Compound 165, 2-(5-((3,4-dichlorobenzyl)amino)-7-oxo-6,7-dihydro-1H-pyrazolo[4,3-d]pyrimidin-1-yl)-N-(methylsulfonyl)acetamide]: the MIC in assay [1], in assay [2], in assay [3], in assay [4], in assay [5] and in assay [6] was more than 64 µg/mL throughout. Also, in assay [7], the MIC was more than 64 µg/mL. Further, the “MIC E. coli ATCC 25922 + 4 mM EDTA” value in assay [7] is more than 64 µg/mL.

For `CC(C)(C)OC(=O)N1CCN(CCOCCn2ncc3nc(NCc4ccc(Cl)c(Cl)c4)[nH]c(=O)c32)CC1` [Compound 166, tert-butyl 4-[2-[2-[5-[(3,4-dichlorophenyl)methylamino]-7-oxo-6H-pyrazolo[4,3-d]pyrimidin-1-yl]ethoxy]ethyl]piperazine-1-carboxylate], the MIC in assay [1] is more than 64 µg/mL; in assay [2] it was more than 64 µg/mL; in assay [3] it was more than 64 µg/mL; in assay [4], 8 µg/mL (≈ 14.1 µM); in assay [5], 16 µg/mL (≈ 28.2 µM); in assay [6], 4 µg/mL (≈ 7.06 µM). In addition, the MIC in assay [7] is more than 64 µg/mL. Also, the “MIC E. coli ATCC 25922 + 4 mM EDTA” value in assay [7] was more than 64 µg/mL.

As to `O=c1[nH]c(NCc2ccc(Cl)c(Cl)c2)nc2cnn(CCOCCCO)c12` [Compound 168, 5-[(3,4-dichlorophenyl)methylamino]-1-[2-(3-hydroxypropoxy)ethyl]-6H-pyrazolo[4,3-d]pyrimidin-7-one], the MIC in assay [1] was found to be 8 µg/mL (≈ 19.4 µM); in assay [2], 8 µg/mL (≈ 19.4 µM); in assay [3], 8 µg/mL (≈ 19.4 µM); in assay [4], 4 µg/mL (≈ 9.7 µM); in assay [5], 8 µg/mL (≈ 19.4 µM); in assay [6], 4 µg/mL (≈ 9.7 µM). Further, the MIC in assay [7] is more than 64 µg/mL. In addition, in assay [7], the “MIC E. coli ATCC 25922 + 4 mM EDTA” value was more than 64 µg/mL.

`O=c1[nH]c(NCc2ccc(Cl)c(Cl)c2)nc2cnn(CCCOCCO)c12` [Compound 169, 5-[(3,4-dichlorophenyl)methylamino]-1-[3-(2-hydroxyethoxy)propyl]-6H-pyrazolo[4,3-d]pyrimidin-7-one]: the minimal inhibitory concentration (MIC) in assay [1] is 8 µg/mL (≈ 19.4 µM); in assay [2], 8 µg/mL (≈ 19.4 µM); in assay [3] it was 8 µg/mL (≈ 19.4 µM); in assay [4], 4 µg/mL (≈ 9.7 µM); in assay [5] it was 8 µg/mL (≈ 19.4 µM); in assay [6], 2 µg/mL (≈ 4.85 µM). Moreover, in assay [7], the MIC is more than 64 µg/mL. Further, the “MIC E. coli ATCC 25922 + 4 mM EDTA” value in assay [7] is more than 64 µg/mL.

As for `Cl.O=c1[nH]c(NCc2ccc(Cl)c(Cl)c2)nc2cnn(CCOc3cccnc3)c12` [Compound 170, 5-((3,4-dichlorobenzyl)amino)-1-(2-(pyridin-3-yloxy)ethyl)-1H-pyrazolo[4,3-d]pyrimidin-7(6H)-one hydrochloride], the “MIC NRS 384 (MRSA)” value in assay [1] is listed as 2/2. Besides, the MIC in assay [2] is 4 µg/mL; in assay [3], 4 µg/mL; in assay [5], 8 µg/mL; in assay [6], 1 µg/mL; in assay [7], more than 64 µg/mL. Besides, the “MIC E. faecium ATCC 700221 (VRE)” value in assay [4] was 4/1. In addition, the “MIC E. coli ATCC 25922 + 4 mM EDTA” value in assay [7] was more than 64. ug/ml.

For the compound `O=c1[nH]c(NCc2ccc(Cl)c(Cl)c2)nc2cnn(Cc3coc(CO)n3)c12` [Compound 171, 5-((3,4-dichlorobenzyl)amino)-1-((2-(hydroxymethyl)oxazol-4-yl)methyl)-1H-pyrazolo[4,3-d]pyrimidin-7(6H)-one], the MIC was 16 µg/mL (≈ 38 µM) in assay [1]; 32 µg/mL (≈ 76 µM) in assay [2]; 16 µg/mL (≈ 38 µM) in assay [3]; 8 µg/mL (≈ 19 µM) in assay [4]; 8 µg/mL (≈ 19 µM) in assay [5]; 4 µg/mL (≈ 9.5 µM) in assay [6]. In assay [7], the minimal inhibitory concentration (MIC) was more than 64 µg/mL. The “MIC E. coli ATCC 25922 + 4 mM EDTA” value in assay [7] is more than 64 µg/mL.

`CN1CCCC(c2nc(Cn3ncc4nc(NCc5ccc(Cl)c(Cl)c5)[nH]c(=O)c43)co2)C1.Cl` (stereo not drawn) [Compound 172, 5-((3,4-dichlorobenzyl)amino)-1-((2-(1-methylpiperidin-3-yl)oxazol-4-yl)methyl)-1H-pyrazolo[4,3-d]pyrimidin-7(6H)-one hydrochloride]: the minimal inhibitory concentration (MIC) worked out at 16 µg/mL in assay [1]; 16 µg/mL in assay [2]; 16 µg/mL in assay [3]; 8 µg/mL in assay [4]; 8 µg/mL in assay [5]; 4 µg/mL in assay [6]. Moreover, the MIC in assay [7] is more than 64 µg/mL. Also, the “MIC E. coli ATCC 25922 + 4 mM EDTA” value in assay [7] is 64 µg/mL.

On to `Cl.O=c1[nH]c(NCc2ccc(Cl)c(Cl)c2)nc2cnn(Cc3coc(C4CCCNC4)n3)c12` (stereo not drawn) [Compound 173, 5-((3,4-dichlorobenzyl)amino)-1-((2-(piperidin-3-yl)oxazol-4-yl)methyl)-1H-pyrazolo[4,3-d]pyrimidin-7(6H)-one hydrochloride], for which the MIC in assay [1] was found to be 32 µg/mL; in assay [2], 32 µg/mL; in assay [3], 32 µg/mL; in assay [4], 32 µg/mL; in assay [5], 8 µg/mL; in assay [6], 8 µg/mL. Also, the minimal inhibitory concentration (MIC) in assay [7] is more than 64 µg/mL. In assay [7], the “MIC E. coli ATCC 25922 + 4 mM EDTA” value stood at 64 µg/mL.

As for `Cl.O=c1[nH]c(NCc2ccc(Cl)c(Cl)c2)nc2cnn(CCOc3ccc(CO)nc3)c12` [Compound 174, 5-((3,4-dichlorobenzyl)amino)-1-(2-((6-(hydroxymethyl)pyridin-3-yl)oxy)ethyl)-1H-pyrazolo[4,3-d]pyrimidin-7(6H)-one hydrochloride], the “MIC NRS 384 (MRSA)” value in assay [1] is on record as 8/8. Moreover, the MIC in assay [2] was 8 µg/mL; in assay [3], 8 µg/mL; in assay [5], 8 µg/mL; in assay [6], 2 µg/mL; in assay [7], more than 64 µg/mL. The “MIC E. faecium ATCC 700221 (VRE)” value in assay [4] is recorded as 2/2. For the same compound, the “MIC E. coli ATCC 25922 + 4 mM EDTA” value in assay [7] was more than 64 µg/mL.

Regarding `Cl.O=C(O)c1ccc(OCCn2ncc3nc(NCc4ccc(Cl)c(Cl)c4)[nH]c(=O)c32)cn1` [Compound 175, 5-(2-(5-((3,4-dichlorobenzyl)amino)-7-oxo-6,7-dihydro-1H-pyrazolo[4,3-d]pyrimidin-1-yl)ethoxy)picolinic acid hydrochloride], the MIC in assay [1], in assay [2], in assay [3], in assay [4], in assay [5] and in assay [6] was more than 64 µg/mL in each case. In addition, the MIC in assay [7] was more than 64 µg/mL. Moreover, the “MIC E. coli ATCC 25922 + 4 mM EDTA” value in assay [7] was more than 64 µg/mL.

Consider `COCCN1CC(Cn2ncc3nc(NCc4ccc(Cl)c(Cl)c4)[nH]c(=O)c32)CC1=O` (stereo not drawn) [Compound 176, 5-((3,4-dichlorobenzyl)amino)-1-((1-(2-methoxyethyl)-5-oxopyrrolidin-3-yl)methyl)-1H-pyrazolo[4,3-d]pyrimidin-7(6H)-one], for which the MIC in assay [1] was 16 µg/mL (≈ 34.4 µM); in assay [2] it was 16 µg/mL (≈ 34.4 µM); in assay [3], 8 µg/mL (≈ 17.2 µM); in assay [4] it was 4 µg/mL (≈ 8.6 µM); in assay [5] it was 4 µg/mL (≈ 8.6 µM); in assay [6] it was 4 µg/mL (≈ 8.6 µM). Moreover, the MIC in assay [7] was more than 64 µg/mL. Also, the “MIC E. coli ATCC 25922 + 4 mM EDTA” value in assay [7] was more than 64 µg/mL.

(Values after patent US10723741B1, “DNA polymerase IIIC inhibitors and use thereof” (Acurx Pharmaceuticals, LLC, priority 2018, dated 2020).)
